Tests used:
[1] = target: STAT3 (Homo sapiens, UniProt P40763); assay: HTRF assay, STAT3; assay type: binding; design: the endogenous full‐length proteins (between 748 and 793 amino acids for STAT3/4/5a/5b); endogenous in cells; host or cells: NK-92 cells (DSMZ), whole-cell lysate; conditions: STAT3 110 nM, without reducing agent, 1 h
Procedure: In addition, an HTRF assay was established for STAT3, one of the STAT proteins targeted to a lesser extent in FP assays, as a specificity control (Figure 1B,C). […] A Tb^3+‐cryptate fused to an anti‐6x‐His antibody was chosen as the long‐lived fluorescent donor, while the carboxyfluorescein linked to the respective STAT‐binding peptides served as the acceptor (Figure 2A). Emission was measured with a time delay of 60 μs after excitation, allowing any initial compound fluorescence to decay beforehand.
Homogenous time-resolved fluorescence (HTRF) assays for STAT3, STAT4, STAT5a and STAT5b were carried out using Cisbio Monoclonal Antibody Anti-6His-Tb Gold as the fluorescence donor (Perkin Elmer) and the corresponding CF-labelled binding peptide as the acceptor. Protein at 110 nM (STAT3), 30 nM (STAT4), 110 nM (STAT 5a) or 80 nM (STAT5b) was combined with terbium-labelled antibody at the recommended concentration, 150 nM CF-labelled peptide and compound as indicated, and incubated at room temperature for 1 h. […] Fluorescence /luminescence was measured in Proxiplate 384-well plates (Perkin Elmer), using a 340 nm excitation filter with 520 nm and 620 nm emission filters, with 60 µs time delay. The average reading from 3 wells was obtained. After subtraction of the blank (buffer only) from each reading, the ratio of the 520 nm / 620 nm readings was calculated. […]

[2] = target: T1, STAT4 (Homo sapiens, UniProt Q14765); assay: HTRF assay, STAT4; assay type: binding; conditions: STAT4 30 nM, without reducing agent, 1 h
T1 sequence (Q14765 1-748): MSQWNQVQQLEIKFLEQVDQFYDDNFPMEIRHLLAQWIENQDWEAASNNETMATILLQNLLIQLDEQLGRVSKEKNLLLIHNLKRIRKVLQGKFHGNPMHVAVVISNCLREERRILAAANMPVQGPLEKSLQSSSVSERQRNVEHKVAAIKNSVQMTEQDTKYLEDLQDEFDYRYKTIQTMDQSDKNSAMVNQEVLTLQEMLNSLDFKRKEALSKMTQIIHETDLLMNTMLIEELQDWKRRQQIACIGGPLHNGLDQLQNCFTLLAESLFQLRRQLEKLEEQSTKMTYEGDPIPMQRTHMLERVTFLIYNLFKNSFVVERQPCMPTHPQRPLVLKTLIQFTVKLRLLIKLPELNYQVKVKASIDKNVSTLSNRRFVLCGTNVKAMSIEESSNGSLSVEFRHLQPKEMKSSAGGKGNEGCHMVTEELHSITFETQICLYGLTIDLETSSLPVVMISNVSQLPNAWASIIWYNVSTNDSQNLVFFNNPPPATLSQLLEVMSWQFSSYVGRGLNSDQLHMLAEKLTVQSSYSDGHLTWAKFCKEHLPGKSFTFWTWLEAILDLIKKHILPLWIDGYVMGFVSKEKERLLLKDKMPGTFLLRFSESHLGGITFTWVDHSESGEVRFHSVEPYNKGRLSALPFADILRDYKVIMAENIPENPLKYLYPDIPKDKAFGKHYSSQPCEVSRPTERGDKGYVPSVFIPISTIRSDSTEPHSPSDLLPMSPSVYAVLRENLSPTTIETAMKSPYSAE
From the text: The azo dyes PPADS and iso‐PPADS have a deep red color in aqueous solution. […] In order to exclude this possibility, we established homogeneous time‐resolved fluorescence resonance energy transfer (HTRF) assays to confirm the degree of binding between STAT4, STAT5a, and STAT5b and the respective 5‐carboxyfluorescein‐labeled binding peptides used in the FP assay. In addition, an HTRF assay was established for STAT3, one of the STAT proteins targeted to a lesser extent in FP assays, as a specificity control (Figure 1B,C). The STAT protein constructs each contain a 6x‐His‐tag.^[ [15], [16], [17], [22] ^] A Tb^3+‐cryptate fused to an anti‐6x‐His antibody was chosen as the long‐lived fluorescent donor, while the carboxyfluorescein linked to the respective STAT‐binding peptides served as the acceptor (Figure 2A). Emission was measured with a time delay of 60 μs after excitation, allowing any initial compound fluorescence to decay beforehand. […]
Screening of chemical libraries comprising approximately 5000 known bioactive compounds in fluorescence polarization-based assays against phosphorylation-dependent protein-protein interaction domains, including STAT proteins, has been described.[1] […]
Fluorescence polarization assays
Competitive fluorescence polarization (FP) assays for STAT1,[2] […] Briefly, peptide binding to proteins was analyzed using the following carboxyfluorescein (CF) -labelled pepti des at a concentration of 10 nM: STAT1: 5-CF-GpYDKPHVL-OH, STAT3: 5-CF-GpYLPQTV -NH2, STAT4: 5-CF-GpYLPQNID-OH, STAT5a and STAT5b: 5-CF-GpYLVLDKW-OH, STAT6: 5- […]
CFGp[…]-OH. […] FP was measured using an Infinite F500 plate reader (Tecan) and measurements were converted into percent inhibition according to the binding curve equation. Curves were plotted and best fits calculated using OriginPro […]
Homogenous time-resolved fluorescence (HTRF) assays for STAT3, STAT4, STAT5a and STAT5b were carried out using Cisbio Monoclonal Antibody Anti-6His-Tb Gold as the fluorescence donor (Perkin Elmer) and the corresponding CF-labelled binding peptide as the acceptor. […] The average reading from 3 wells was obtained. […]

STAT3, sequence (P40763 whole entry, species assumed): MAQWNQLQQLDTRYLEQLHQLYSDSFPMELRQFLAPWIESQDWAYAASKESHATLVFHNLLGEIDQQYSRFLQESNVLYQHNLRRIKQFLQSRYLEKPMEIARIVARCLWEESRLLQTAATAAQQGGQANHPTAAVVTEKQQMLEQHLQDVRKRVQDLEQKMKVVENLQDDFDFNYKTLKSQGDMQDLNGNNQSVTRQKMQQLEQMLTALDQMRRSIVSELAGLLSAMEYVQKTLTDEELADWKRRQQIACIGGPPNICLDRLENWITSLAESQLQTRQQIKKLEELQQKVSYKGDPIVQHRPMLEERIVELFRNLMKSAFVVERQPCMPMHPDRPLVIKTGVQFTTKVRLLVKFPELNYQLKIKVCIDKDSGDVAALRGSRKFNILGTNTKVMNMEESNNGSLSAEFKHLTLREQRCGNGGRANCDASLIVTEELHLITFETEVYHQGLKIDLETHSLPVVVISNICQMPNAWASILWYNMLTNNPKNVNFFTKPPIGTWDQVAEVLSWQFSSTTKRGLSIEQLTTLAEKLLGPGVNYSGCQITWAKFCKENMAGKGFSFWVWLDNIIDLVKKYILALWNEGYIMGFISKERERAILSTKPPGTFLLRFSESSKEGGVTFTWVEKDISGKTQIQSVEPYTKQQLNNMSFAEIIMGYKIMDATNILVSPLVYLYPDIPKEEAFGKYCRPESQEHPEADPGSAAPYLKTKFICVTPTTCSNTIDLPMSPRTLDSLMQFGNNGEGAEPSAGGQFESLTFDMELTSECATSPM

Compound	IC50 [1]	IC50 [2]
Cc1nc(/N=N/c2ccc(S(=O)(=O)O)cc2S(=O)(=O)O)c(COP(=O)(O)O)c(C=O)c1O [PPADS, pyridoxalphosphate‐6‐azophenyl‐2',4'‐disulfonic acid]	29.6 ± 4 µM	2.92 ± 0.36 µM
Cc1nc(/N=N/c2cc(S(=O)(=O)O)ccc2S(=O)(=O)O)c(COP(=O)(O)O)c(C=O)c1O [iso‐PPADS]	31.9 ± 4 µM	8.6 ± 1.3 µM
